Source: patent publication US8956622B2, “Peptidic antagonists of class III semaphorins/neuropilins complexes” (INSERM—Institut National de la Sante et de la Recherche …, priority 2005, dated 2015)

Columns and labels:
NRP1 receptor complex = target: T1, NRP1 receptor complex (Rattus norvegicus, UniProt Q9QWJ9); assay: Formation of NRP1 receptor complexes, sucrose density gradient sedimentation and western blot; assay type: cell-based; details: C6 cells expressing NRP1 and Plexin-A1, peptide 10^−9 M for 1 h
T1 construct: C6 cells expressing NRP1 and Plexin-A1 were incubated or not with the pTM-NRP1 peptide; endogenous in cells; host or cells: rat C6 glioma cells
Method: To further investigate the role of the transmembrane domain of the NRP1 receptor in the formation of the NRP1 receptor complex, the formation of NRP1 complexes has been determined on C6 cells expressing NRP1 and plexin-A1 in the presence or not of the transmembrane domain peptide of NRP1 (pTM-NRP1 peptide) and of the ligand Sema3A.
C6 cells expressing NRP1 and Plexin-A1 were incubated or not with the pTM-NRP1 peptide (10^−9 M) for 1 h. The culture medium has been then replaced of HER cells stably transfected or not with a construction expressing Sema 3A. Confluent C6 have been harvested with 10 mM EDTA and centrifuged. The pellet has been washed in PBS and then diluted in lysis buffer (Tris-HCL/NaCl; 50/150; pH 8.0) with 0.1% SDS, 1 mM EDTA, 1% NP-40, 0.5% DOC, 2 mM vanadate and proteases inhibitors without SDS (PIERCE). After solubilization for 1 h at 4° C., protein amount is estimated by bicinchoninic acid method (BCA Protein Assay, PIERCE).
Sucrose density gradient sedimentation experiments were based on a step gradient containing 25%, 17%, 10% and 3% sucrose. […]
The membrane has been then incubated 2 hours with polyclonal anti-NRP1 at a 1:1000 dilution (ONCOGENE). […] Immunoreactivity has been then detected with an enhanced chemoluminescence western blot detection system (PIERCE) according to the manufacturer's instructions. […]

PC12 cells = assay: PC12 cell differentiation / neuritic outgrowth assay; assay type: cell-based; details: peptide 10^−9 M
Method: To further investigate the biochemical consequence of the TM-NRP1 in terms of receptor complex formation, we analyzed the formation of complexes in the PC12 neuronal cells model.
PC12 (ATCC: CRL-1721) were grown in D-MEM medium with 4.5 g of glucose/L (GIBCO), 5% FVS, 10% horse serum, glutamine 580 mg/L and antibiotics. For functional assays, PC12 were cultured on 12-wells plates with previously poly-L-lysine-coated glass coverslips. PC12 cells were incubated 1 h with or without pTM-NRP1 peptide (10^−9M) at 37° C. Culture medium was removed and replaced by NGF-containing (100 ng/mL; GIBCO) serum free medium or by conditioned medium obtained from HEK293 cells stably expressing Sema3A or non-transfected cells (control, see BAGNARD et al., 1998 for details) for 12 h at 37° C.
Cells were fixed with 2% formaldehyde for 30 mn followed by 15 mn in 4% formaldehyde. For each condition tested, around 400 cells were analyzed to evaluate neuritic outgrowth (Statistical analyses were made by using χ^2 test).

Sequence: ILITIIAMSALGVLLGAVCGVVL [pTM-NRP1]
- oligomerization of NRP1 in the presence of Sema 3A (NRP1 receptor complex): inhibited
- NGF effect on PC12 cell differentiation (PC12 cells; NGF 100 ng/mL 12 h): preserved
- Sema3A induced neurite growth promotion (PC12 cells; Sema3A conditioned medium 12 h): significantly reduced
